Results as given in PubChem BioAssay (NCI).
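A five-concentration, 48-hour dose response in 96-well plates underlies each endpoint, interpolated linearly between surrounding concentrations. GI50 marks 50% less growth. The concentration for full growth arrest is given as TGI.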

Tests used:
Assay in all cases: growth of human tumour cells (NCI), 48 h
[1] = system: K-562 leukemia
[2] = system: HCT-15 colon
[3] = system: MDA-MB-435
[4] = system: MCF7 breast
[5] = system: NCI-H23 lung
[6] = system: CAKI-1 renal
[7] = system: SF-268 CNS
[8] = system: SR leukemia
[9] = system: KM12 colon
[10] = system: SK-OV-3 ovarian
[11] = system: NCI-H460 lung
[12] = system: U251 CNS
[13] = system: SK-MEL-5 melanoma
[14] = system: NCI-H226 lung
[15] = system: HCT-116 colon
[16] = system: OVCAR-8 ovarian
[17] = system: BT-549 breast
[18] = system: OVCAR-4 ovarian
[19] = system: NCI-H522 lung
[20] = system: 786-0 renal
[21] = system: COLO 205 colon
[22] = system: UACC-62 melanoma
[23] = system: HOP-92 NSCLC
[24] = system: SF-539 CNS
[25] = system: IGROV1 ovarian
[26] = system: A498 renal
[27] = system: MOLT-4 leukemia
[28] = system: HT29 colon
[29] = system: DU-145 prostate
[30] = system: TK-10 renal
[31] = system: CCRF-CEM leukemia
[32] = system: SN12C renal
[33] = system: RXF 393 renal
[34] = system: MALME-3M melanoma
[35] = system: SNB-19 CNS
[36] = system: HL-60(TB) leukemia
[37] = system: SK-MEL-28 melanoma
[38] = system: ACHN renal
[39] = system: OVCAR-5 ovarian
[40] = system: OVCAR-3 ovarian
[41] = system: SF-295 CNS
[42] = system: HS 578T breast
[43] = system: A549 NSCLC
[44] = system: SNB-75 CNS
[45] = system: EKVX NSCLC
[46] = system: HCC-2998 colon
[47] = system: SK-MEL-2 melanoma
[48] = system: UO-31 renal
[49] = system: LOX IMVI melanoma
[50] = system: UACC-257 melanoma
[51] = system: HOP-62 NSCLC
[52] = system: SW-620 colon
[53] = system: RPMI-8226 leukemia
[54] = system: PC-3 prostate
[55] = system: M14 melanoma
[56] = system: MDA-MB-231 breast
[57] = system: MDA-MB-468 breast
[58] = system: T-47D breast

SMILES: CN(C)c1nc(NCCNS(=O)(=O)c2ccc(C(=O)/C=C/c3ccccc3)cc2)nc(N2CCOCC2)n1
- GI50 [1]: 2.19 µM
- TGI [1]: > 100 µM
- GI50 [2]: 5.21 µM
- TGI [2]: 20.5 µM
- GI50 [3]: 14.7 µM
- TGI [3]: 28.3 µM
- GI50 [4]: 3.49 µM
- TGI [4]: 13.8 µM
- GI50 [5]: 16 µM
- TGI [5]: 30.4 µM
- GI50 [6]: 12.2 µM
- TGI [6]: 24.6 µM
- GI50 [7]: 13.7 µM
- TGI [7]: 31 µM
- GI50 [8]: 3.2 µM
- TGI [8]: > 100 µM
- GI50 [9]: 2 µM
- TGI [9]: 4.23 µM
- GI50 [10]: 15.6 µM
- TGI [10]: 29.8 µM
- GI50 [11]: 18.2 µM
- TGI [11]: 38.3 µM
- GI50 [12]: 11.7 µM
- TGI [12]: 25.9 µM
- GI50 [13]: 15.9 µM
- TGI [13]: 29.4 µM
- GI50 [14]: 13.5 µM
- TGI [14]: 31.7 µM
- GI50 [15]: 1.82 µM
- TGI [15]: 3.59 µM
- GI50 [16]: 16.4 µM
- TGI [16]: 31.8 µM
- GI50 [17]: 11.2 µM
- TGI [17]: 23.7 µM
- GI50 [18]: 14.3 µM
- TGI [18]: 27.8 µM
- GI50 [19]: 13.6 µM
- TGI [19]: 27.1 µM
- GI50 [20]: 14.8 µM
- TGI [20]: 29.1 µM
- GI50 [21]: 20.2 µM
- TGI [21]: 40.3 µM
- GI50 [22]: 12 µM
- TGI [22]: 25 µM
- GI50 [23]: 12.2 µM
- TGI [23]: 26.6 µM
- GI50 [24]: 11.1 µM
- TGI [24]: 24.3 µM
- GI50 [25]: 15.3 µM
- TGI [25]: 31.9 µM
- GI50 [26]: 14.6 µM
- TGI [26]: 27.8 µM
- GI50 [27]: 4.27 µM
- TGI [27]: > 100 µM
- GI50 [28]: 3.8 µM
- TGI [28]: 13.1 µM
- GI50 [29]: 15.1 µM
- TGI [29]: 28.4 µM
- GI50 [30]: 16.4 µM
- TGI [30]: 30.2 µM
- GI50 [31]: 4.41 µM
- TGI [31]: 75.9 µM
- GI50 [32]: 14.6 µM
- TGI [32]: 28.6 µM
- GI50 [33]: 7.87 µM
- TGI [33]: 22.8 µM
- GI50 [34]: 15.2 µM
- TGI [34]: 29.3 µM
- GI50 [35]: 14.8 µM
- TGI [35]: 29.1 µM
- GI50 [36]: 6.18 µM
- TGI [36]: 42.1 µM
- GI50 [37]: 17.2 µM
- TGI [37]: 33.1 µM
- GI50 [38]: 18.2 µM
- TGI [38]: 36.3 µM
- GI50 [39]: 12.1 µM
- TGI [39]: 26 µM
- GI50 [40]: 15.3 µM
- TGI [40]: 28.6 µM
- GI50 [41]: 15.6 µM
- TGI [41]: 30.4 µM
- GI50 [42]: 17.1 µM
- TGI [42]: 64.4 µM
- GI50 [43]: 13.6 µM
- TGI [43]: 28.3 µM
- GI50 [44]: 5.49 µM
- TGI [44]: 19.8 µM
- GI50 [45]: 14.7 µM
- TGI [45]: 30.6 µM
- GI50 [46]: 16.7 µM
- TGI [46]: 31.1 µM
- GI50 [47]: 15.3 µM
- TGI [47]: 29.5 µM
- GI50 [48]: 11.2 µM
- TGI [48]: 25 µM
- GI50 [49]: 1.97 µM
- TGI [49]: 4.13 µM
- GI50 [50]: 17.9 µM
- TGI [50]: 32.3 µM
- GI50 [51]: 16.4 µM
- TGI [51]: 32.1 µM
- GI50 [52]: 3.41 µM
- TGI [52]: 12.7 µM
- GI50 [53]: 3.25 µM
- TGI [53]: 11.4 µM
- GI50 [54]: 8.63 µM
- TGI [54]: 23.6 µM
- GI50 [55]: 14.6 µM
- TGI [55]: 31.6 µM
- GI50 [56]: 13.9 µM
- TGI [56]: 27.6 µM
- GI50 [57]: 4.17 µM
- TGI [57]: 17.7 µM
- GI50 [58]: 16 µM
- TGI [58]: 37.4 µM

SMILES: Cn1cc(-c2cc3nc(-c4cn(C)c5ncccc45)cc(N)n3n2)c2cc(F)ccc21
- GI50 [1]: 10.5 µM
- TGI [1]: > 100 µM
- GI50 [2]: > 100 µM
- TGI [2]: > 100 µM
- GI50 [3]: > 100 µM
- TGI [3]: > 100 µM
- GI50 [4]: 13.4 µM
- TGI [4]: > 100 µM
- GI50 [5]: 13.7 µM
- TGI [5]: 58.2 µM
- GI50 [6]: 13 µM
- TGI [6]: > 100 µM
- GI50 [7]: 15.6 µM
- TGI [7]: > 100 µM
- GI50 [8]: 2.48 µM
- TGI [8]: > 100 µM
- GI50 [9]: > 100 µM
- TGI [9]: > 100 µM
- GI50 [10]: 14.4 µM
- TGI [10]: 34.5 µM
- GI50 [11]: 5.43 µM
- TGI [11]: > 100 µM
- GI50 [12]: 4.12 µM
- TGI [12]: 15.4 µM
- GI50 [13]: 46.2 µM
- TGI [13]: > 100 µM
- GI50 [14]: 4.04 µM
- TGI [14]: 20.2 µM
- GI50 [15]: > 100 µM
- TGI [15]: > 100 µM
- GI50 [16]: 4.6 µM
- TGI [16]: 40.5 µM
- GI50 [17]: 13.3 µM
- TGI [17]: 48 µM
- GI50 [18]: 4.12 µM
- TGI [18]: 20.9 µM
- GI50 [19]: 10.8 µM
- TGI [19]: 30.6 µM
- GI50 [20]: 4.82 µM
- TGI [20]: 19.8 µM
- GI50 [21]: 6.78 µM
- TGI [21]: > 100 µM
- GI50 [22]: 20.4 µM
- TGI [22]: > 100 µM
- GI50 [23]: 11.2 µM
- TGI [23]: 46.7 µM
- GI50 [24]: 10.6 µM
- TGI [24]: 28.8 µM
- GI50 [25]: 4.45 µM
- TGI [25]: 53.1 µM
- GI50 [26]: 50 µM
- TGI [26]: > 100 µM
- GI50 [27]: 20 µM
- TGI [27]: > 100 µM
- GI50 [28]: 4.14 µM
- TGI [28]: 28.4 µM
- GI50 [29]: 8.97 µM
- TGI [29]: > 100 µM
- GI50 [30]: 10.3 µM
- TGI [30]: 31.3 µM
- GI50 [31]: 7.83 µM
- TGI [31]: > 100 µM
- GI50 [32]: 9.61 µM
- TGI [32]: > 100 µM
- GI50 [33]: 2.61 µM
- TGI [33]: 9.35 µM
- GI50 [34]: 10.6 µM
- TGI [34]: 37.7 µM
- GI50 [35]: 5.79 µM
- TGI [35]: 24.3 µM
- GI50 [36]: > 100 µM
- TGI [36]: > 100 µM
- GI50 [37]: > 100 µM
- TGI [37]: > 100 µM
- GI50 [38]: 4.21 µM
- TGI [38]: 20.6 µM
- GI50 [39]: 25.2 µM
- TGI [39]: > 100 µM
- GI50 [40]: 14.1 µM
- TGI [40]: 57.8 µM
- GI50 [41]: 3.22 µM
- TGI [41]: 14 µM
- GI50 [42]: 11.3 µM
- TGI [42]: 69.6 µM
- GI50 [43]: 7.71 µM
- TGI [43]: > 100 µM
- GI50 [45]: 19 µM
- TGI [45]: > 100 µM
- GI50 [46]: 61.2 µM
- TGI [46]: > 100 µM
- GI50 [47]: 10.4 µM
- TGI [47]: 23.3 µM
- GI50 [48]: 31.9 µM
- TGI [48]: > 100 µM
- GI50 [49]: 2.43 µM
- TGI [49]: 5.78 µM
- GI50 [50]: 65.6 µM
- TGI [50]: > 100 µM
- GI50 [51]: 4.05 µM
- TGI [51]: 16.6 µM
- GI50 [52]: 52.7 µM
- TGI [52]: > 100 µM
- GI50 [53]: 13.6 µM
- TGI [53]: > 100 µM
- GI50 [54]: 11 µM
- TGI [54]: > 100 µM
- GI50 [55]: 57 µM
- TGI [55]: > 100 µM
- GI50 [56]: 9.62 µM
- TGI [56]: 26.8 µM
- GI50 [57]: 3.81 µM
- TGI [57]: 22.1 µM
- GI50 [58]: 6.15 µM
- TGI [58]: 67.1 µM
